Measurements taken from patent EP4818168A1, “FUSED RING COMPOUND, PHARMACEUTICAL COMPOSITION THEREOF AND USE THEREOF” (priority 2023, dated 2025).
pIC50: −log10 of the molar value. Where two headings read alike, the source gives them in different places.

Assays:
AURKA = target: T1, AURKA (Homo sapiens, UniProt O14965); format: cell-based
T1 construct: endogenous in cells; host or cells: Jurkat cells
T1 sequence (O14965 1-403): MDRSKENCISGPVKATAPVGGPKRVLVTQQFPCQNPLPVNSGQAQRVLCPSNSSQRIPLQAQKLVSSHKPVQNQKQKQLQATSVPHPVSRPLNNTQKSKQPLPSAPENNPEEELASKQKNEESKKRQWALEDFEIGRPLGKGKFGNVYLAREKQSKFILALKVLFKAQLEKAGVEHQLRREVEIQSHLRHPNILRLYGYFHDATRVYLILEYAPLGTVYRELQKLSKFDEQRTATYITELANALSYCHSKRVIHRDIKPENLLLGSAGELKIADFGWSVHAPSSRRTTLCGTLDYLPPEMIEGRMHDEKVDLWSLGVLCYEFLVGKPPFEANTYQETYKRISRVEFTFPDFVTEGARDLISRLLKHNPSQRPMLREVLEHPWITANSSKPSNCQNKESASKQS
Procedure, shortened: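 Jurkat cells seeded at 1×10^6 cells/500 µL and treated with compound; lysates run on SDS-PAGE, blotted to nitrocellulose and probed overnight at 4°C for AURKA. Chemiluminescent or fluorescent band intensity fitted to a curve to give DC50 for protein degradation.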

H82 cells = experiment: cells; format: cell-based; conditions: Homo sapiens
Procedure, shortened: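 H82 cells in RPMI1640 + 10% FBS exposed to compound (0.1% DMSO final) for 6 days at 37 °C, 5% CO2. Viability read by CellTiter-Glo ATP luminescence, normalised to DMSO and medium controls; IC50 from nonlinear regression of the dose–survival curve.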

[1] = NCI-H82, read-out: IC50 in H82 Cells
[2] = 100 nM compound, Jurkat cells, 24 h, Table 2
[3] = 1 µM compound, Jurkat cells, 24 h, Table 2
[4] = NCI-H82, H82 cells, 4000 cells/well, CellTiter-Glo, read-out: IC50 in H82 Cells

SMILES	Percentage of AURKA Degradation Induced by 100 nM Compound in Jurkat Cells (AURKA)	Percentage of AURKA Degradation Induced by 1 µM Compound in Jurkat Cells (AURKA)	pIC50 (H82 cells; [1])	Percentage of AURKA Degradation Induced by 100 nM Compound in Jurkat Cells (AURKA; [2])	Percentage of AURKA Degradation Induced by 1 µM Compound in Jurkat Cells (AURKA; [3])	pIC50 (H82 cells; [4])
O=C1CCN(c2ccc(N3CC(N4CCN(Cc5ccc(Nc6ncc7c(n6)-c6ccc(Cl)cc6C(c6c(F)cccc6F)=NC7)cc5)CC4=O)C3)nc2)C(=O)N1 [Compound A276]	++ (key: +: Degradation ≤ 30%; ++: 30% < Degradation ≤ 70%; +++: Degradation > 70%)	++ (key: +: Degradation ≤ 30%; ++: 30% < Degradation ≤ 70%; +++: Degradation > 70%)	> 6.00			
O=C1CCN(c2ccc(N3CCN(C(=O)C4CCN(c5ccc(Nc6ncc7c(n6)-c6ccc(Cl)cc6C(c6c(F)cccc6F)=NC7)cc5)CC4)CC3)nc2)C(=O)N1 [Compound A277]				+++ (Degradation > 70%)	+++ (Degradation > 70%)	> 6.00
O=C1CCN(c2ccc(N3CC(CN4CCN(C(=O)C56CC(Nc7ncc8c(n7)-c7ccc(Cl)cc7C(c7c(F)cccc7F)=NC8)(C5)C6)CC4)C3)nc2)C(=O)N1 [Compound A279]				+++ (Degradation > 70%)	+++ (Degradation > 70%)	> 6.00
O=C1CCN(c2ccc(N3CCC(C(=O)N4CCN(C56CC(Nc7ncc8c(n7)-c7ccc(Cl)cc7C(c7nccs7)=NC8)(C5)C6)C(=O)C4)CC3)nc2)C(=O)N1 [Compound A280]				+++ (Degradation > 70%)	+++ (Degradation > 70%)	> 6.00
O=C1CCN(c2ccc(N3CCN(CC4(O)CN(c5ccc(Nc6ncc7c(n6)-c6ccc(Cl)cc6C(c6c(F)cccc6F)=NC7)cc5)C4)CC3)nc2)C(=O)N1 [Compound A281]				+++ (Degradation > 70%)	+++ (Degradation > 70%)	> 6.00
O=C1CCN(c2ccc(N3CCC(N4CCN(c5ccc(Nc6ncc7c(n6)-c6ccc(Cl)cc6C(c6nccs6)=NC7)cc5)C(=O)C4)CC3)nc2)C(=O)N1 [Compound A282]	+++ (key: +: Degradation ≤ 30%; ++: 30% < Degradation ≤ 70%; +++: Degradation > 70%)	+++ (key: +: Degradation ≤ 30%; ++: 30% < Degradation ≤ 70%; +++: Degradation > 70%)	> 6.00			
O=C1CCN(c2ccc(N3CCC(CN4CC(=O)N(C56CC(Nc7ncc8c(n7)-c7ccc(Cl)cc7C(c7c(F)cccc7F)=NC8)(C5)C6)C(=O)C4)CC3)nc2)C(=O)N1 [Compound A283]				+++ (Degradation > 70%)	+++ (Degradation > 70%)	> 6.00
O=C1CCN(c2ccc(N3CCN(C(=O)C4CCN(C56CC(Nc7ncc8c(n7)-c7ccc(Cl)cc7C(c7c(F)cccc7F)=NC8)(C5)C6)C(=O)C4)CC3)nc2)C(=O)N1 (stereo not drawn) [Compound A284]				+++ (Degradation > 70%)	++ (30% < Degradation ≤ 70%)	> 6.00
O=C1CCN(c2ccc(N3CCOC(C(=O)N4CCN(c5ccc(Nc6ncc7c(n6)-c6ccc(Cl)cc6C(c6c(F)cccc6F)=NC7)cc5)CC4)C3)nc2)C(=O)N1 (stereo not drawn) [Compound A285]				+++ (Degradation > 70%)	+++ (Degradation > 70%)	> 6.00
O=C1CCN(c2cnc(N3CCN(CC4(F)CN(c5ccc(Nc6ncc7c(n6)-c6ccc(Cl)cc6C(c6c(F)cccc6F)=NC7)cc5)C4)CC3)nc2)C(=O)N1 [Compound A286]				++ (30% < Degradation ≤ 70%)	++ (30% < Degradation ≤ 70%)	> 6.00
CP(C)(=O)c1cc(N2CCC(=O)NC2=O)ccc1N1CCN(C(=O)C2CCN(c3ccc(Nc4ncc5c(n4)-c4ccc(Cl)cc4C(c4c(F)cccc4F)=NC5)cc3)CC2)CC1 [Compound A287]				+ (Degradation ≤ 30%)	+ (Degradation ≤ 30%)	> 6.00
CP(C)(=O)c1cc(N2CCN(C(=O)C3CCN(c4ccc(Nc5ncc6c(n5)-c5ccc(Cl)cc5C(c5c(F)cccc5F)=NC6)cc4)CC3)CC2)ccc1N1CCC(=O)NC1=O [Compound A288]				+ (Degradation ≤ 30%)	+ (Degradation ≤ 30%)	> 6.00
O=C1CCN(c2ccc(N3CCC(O)(CN4CCN(C56CC(Nc7ncc8c(n7)-c7ccc(Cl)cc7C(c7c(F)cccc7F)=NC8)(C5)C6)C(=O)C4)CC3)nc2)C(=O)N1 [Compound A290]	++ (key: +: Degradation ≤ 30%; ++: 30% < Degradation ≤ 70%; +++: Degradation > 70%)	+++ (key: +: Degradation ≤ 30%; ++: 30% < Degradation ≤ 70%; +++: Degradation > 70%)	> 6.00			
O=C1CCN(c2ccc(N3CCN(CC4(F)CN(c5ccc(Nc6ncc7c(n6)-c6ccc(Cl)cc6C(c6nccs6)=NC7)cc5)C4)CC3)nc2)C(=O)N1 [Compound A291]				+++ (Degradation > 70%)	+++ (Degradation > 70%)	> 6.00
O=C1CCN(c2ccc(N3CC(C(=O)N4CCN(c5ccc(Nc6ncc7c(n6)-c6ccc(Cl)cc6C(c6nccs6)=NC7)cc5)CC4)C3)nc2)C(=O)N1 [Compound A292]				+++ (Degradation > 70%)	+++ (Degradation > 70%)	> 6.00
O=C1CCN(c2ccc(N3CCC(C4CN(C(=O)C56CC(Nc7ncc8c(n7)-c7ccc(Cl)cc7C(c7c(F)cccc7F)=NC8)(C5)C6)C4)CC3)nc2)C(=O)N1 [Compound A293]				+++ (Degradation > 70%)	+++ (Degradation > 70%)	> 6.00
O=C1CCN(c2ccc(N3CCC(F)(CN4CC(=O)N(C56CC(Nc7ncc8c(n7)-c7ccc(Cl)cc7C(c7c(F)cccc7F)=NC8)(C5)C6)C(=O)C4)CC3)nc2)C(=O)N1 [Compound A294]				++ (30% < Degradation ≤ 70%)	++ (30% < Degradation ≤ 70%)	> 6.00
N#Cc1cc(N2CCC(=O)NC2=O)ccc1N1CCN(C(=O)C2CCN(c3ccc(Nc4ncc5c(n4)-c4ccc(Cl)cc4C(c4c(F)cccc4F)=NC5)cc3)CC2)CC1 [Compound A296]				+++ (Degradation > 70%)	+++ (Degradation > 70%)	> 6.00
O=C1CCN(c2ccc(N3CC(C4CCN(C(=O)C56CC(Nc7ncc8c(n7)-c7ccc(Cl)cc7C(c7c(F)cccc7F)=NC8)(C5)C6)CC4)C3)nc2)C(=O)N1 [Compound A297]				+++ (Degradation > 70%)	+++ (Degradation > 70%)	> 6.00
O=C1CCN(c2ccc(N3CC4(CC(N5CCN(C67CC(Nc8ncc9c(n8)-c8ccc(Cl)cc8C(c8c(F)cccc8F)=NC9)(C6)C7)C(=O)C5)C4)C3)nc2)C(=O)N1 [Compound A298]				+++ (Degradation > 70%)	+++ (Degradation > 70%)	> 6.00
